Laboratory results taken from PubChem BioAssay AID330 (DTP/NCI, 2004).
Several values for one entry are separate records, joined by “and”; a condition that tells them apart may be missing. Identical values can stand only once. Inconclusive results and toxic doses are left out. Rule for the calls: active = survival T/C of 150% or more; inactive = T/C below 125% in these data. Peptide text beside a SMILES is read from it. * marks the point of attachment. Cbz = O=C(OCc1ccccc1)*

System: P388 leukemia ip, CD2F1 mice, survival T/C
Assay: NCI In Vivo Anticancer Drug Screen. Data for tumor model P388 Leukemia (intraperitoneal) in CD2F1 (CDF1) mice
Details: endpoint: median survival time, higher = longer survival
In short: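 Mice carrying the transplanted tumor received test compound or vehicle. Survival was recorded in each group, and the value is the treated-group measurement divided by that of the vehicle-treated control group.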

[1] = dose: 60.0 mg/kg/injection, schedule: Q01DX005 (ip), vehicle: saline with Tween-80
[2] = dose: 120.0 mg/kg/injection, schedule: Q01DX005 (ip), vehicle: saline with Tween-80
[3] = dose: 50.0 mg/kg/injection, schedule: Q01DX005 (ip), vehicle: Klucel (hydroxypropylcellulose) (HPC)
[4] = dose: 100.0 mg/kg/injection, schedule: Q01DX005 (ip), vehicle: Klucel (hydroxypropylcellulose) (HPC)
[5] = dose: 200.0 mg/kg/injection, schedule: Q01DX005 (ip), vehicle: Klucel (hydroxypropylcellulose) (HPC)

Measured: T/C

O=[N+]([O-])c1ccc(N2CC2)c2c1no[n+]2[O-]
inactive: dose: 7.5 mg/kg/injection, schedule: Q04DX003 (ip), vehicle: saline with Tween-80 101 % of control | dose: 15.0 mg/kg/injection, schedule: Q04DX003 (ip), vehicle: saline with Tween-80 99 % of control | dose: 30.0 mg/kg/injection, schedule: Q04DX003 (ip), vehicle: saline with Tween-80 100 % of control | dose: 60.0 mg/kg/injection, schedule: Q04DX003 (ip), vehicle: saline with Tween-80 100 % of control

O=c1[nH]cnc2ncnn12
inactive: dose: 25.0 mg/kg/injection, schedule: Q01DX009 (ip), vehicle: suspension in saline 97 % of control | dose: 50.0 mg/kg/injection, schedule: Q01DX009 (ip), vehicle: suspension in saline 93 % of control | dose: 200.0 mg/kg/injection, schedule: Q01DX009 (ip), vehicle: suspension in saline 90 % of control

COc1cc(C=NCc2ccccc2)cc(OC)c1O
inactive: dose: 50.0 mg/kg/injection, schedule: Q04DX003 (ip), vehicle: saline with Tween-80 103 % of control | dose: 200.0 mg/kg/injection, schedule: Q04DX003 (ip), vehicle: saline with Tween-80 97 % of control | dose: 400.0 mg/kg/injection, schedule: Q04DX003 (ip), vehicle: saline with Tween-80 97 % of control

CCC(C)C(NC(=O)C(Cc1ccc(O)cc1)NC(=O)OCc1ccccc1)C(=O)OC (stereo not drawn) (Cbz-Tyr-Ile-OMe; configuration not given here)
inactive: dose: 50.0 mg/kg/injection, schedule: Q01DX005 (ip), vehicle: saline with Tween-80 106 % of control | dose: 100.0 mg/kg/injection, schedule: Q01DX005 (ip), vehicle: saline with Tween-80 92 % of control | dose: 200.0 mg/kg/injection, schedule: Q01DX005 (ip), vehicle: saline with Tween-80 97 % of control

N#CC1C(=O)NC(=O)C(C#N)C1c1ccc(Cl)cc1 (stereo unspecified)
inactive: dose: 50.0 mg/kg/injection, schedule: Q01DX009 (ip), vehicle: Klucel (hydroxypropylcellulose) (HPC) 101 % of control | dose: 100.0 mg/kg/injection, schedule: Q01DX009 (ip), vehicle: Klucel (hydroxypropylcellulose) (HPC) 100 % of control | dose: 200.0 mg/kg/injection, schedule: Q01DX009 (ip), vehicle: Klucel (hydroxypropylcellulose) (HPC) 101 % of control

Nc1ccc2ccc3ccc(N)nc3c2n1
inactive: [1] 103 % of control | [2] 91 % of control

COc1cccc2c1C(=O)c1c(O)c3c(c(O)c1C2=O)C[C@@](O)(/C(C)=N/NC(=O)c1cccc([N+](=O)[O-])c1)C[C@@H]3OC1CC(N)C(O)C(C)O1 (stereo partly specified)
active: dose: 0.5 mg/kg/injection, schedule: Q01DX009 (ip), vehicle: water 152 % of control | dose: 1.0 mg/kg/injection, schedule: Q01DX009 (ip), vehicle: water 155 % of control | dose: 2.0 mg/kg/injection, schedule: Q01DX009 (ip), vehicle: water 172 % of control and 179 % of control | dose: 4.0 mg/kg/injection, schedule: Q01DX009 (ip), vehicle: water 190 % of control and 200 % of control | dose: 5.0 mg/kg/injection, schedule: Q01DX001 (ip), vehicle: water 167 % of control | dose: 10.0 mg/kg/injection, schedule: Q01DX001 (ip), vehicle: water 186 % of control | dose: 25.0 mg/kg/injection, schedule: Q04DX003 (ip), vehicle: water 168 % of control | dose: 64.0 mg/kg/injection, schedule: Q04DX003 (ip), vehicle: saline 174 % of control
123 % of control and 202 % of control: dose: 8.0 mg/kg/injection, schedule: Q01DX009 (ip), vehicle: water
inactive: dose: 1.0 mg/kg/injection, schedule: Q04DX003 (ip), vehicle: saline 100 % of control and 112 % of control | dose: 1.56 mg/kg/injection, schedule: Q04DX003 (ip), vehicle: water 106 % of control | dose: 2.0 mg/kg/injection, schedule: Q04DX003 (ip), vehicle: saline 100 % of control and 115 % of control | dose: 3.13 mg/kg/injection, schedule: Q04DX003 (ip), vehicle: water 112 % of control and 117 % of control | dose: 4.0 mg/kg/injection, schedule: Q04DX003 (ip), vehicle: saline 113 % of control and 122 % of control | dose: 6.25 mg/kg/injection, schedule: Q04DX003 (ip), vehicle: water 114 % of control and 122 % of control | dose: 8.0 mg/kg/injection, schedule: Q04DX003 (ip), vehicle: saline 112 % of control and 115 % of control and 95 % of control | dose: 16.0 mg/kg/injection, schedule: Q04DX003 (ip), vehicle: saline 110 % of control and 115 % of control and 123 % of control | dose: 32.0 mg/kg/injection, schedule: Q04DX003 (ip), vehicle: saline 118 % of control | dose: 100.0 mg/kg/injection, schedule: Q04DX003 (ip), vehicle: water 114 % of control | dose: 512.0 mg/kg/injection, schedule: Q04DX003 (ip), vehicle: saline 92 % of control | dose: 1024.0 mg/kg/injection, schedule: Q04DX003 (ip), vehicle: saline 93 % of control | dose: 2048.0 mg/kg/injection, schedule: Q04DX003 (ip), vehicle: saline 90 % of control

O=C(N/N=C/c1ccccc1Cl)C(=O)Nc1cccc(C(F)(F)F)c1
inactive: [3] 95 % of control | [4] 96 % of control | [5] 99 % of control

CNC(=O)OCc1c(COC(=O)NC)c(-c2ccc([N+](=O)[O-])cc2)n(C)c1C
active: dose: 6.25 mg/kg/injection, schedule: Q01DX009 (ip), vehicle: distilled water + Tween-80 151 % of control and 153 % of control | dose: 12.5 mg/kg/injection, schedule: Q01DX009 (ip), vehicle: distilled water + Tween-80 159 % of control and 169 % of control

O=C(O)c1cc(OCc2ccccc2)cc(OCc2ccccc2)c1
inactive: [1] 96 % of control | [2] 102 % of control | dose: 240.0 mg/kg/injection, schedule: Q01DX005 (ip), vehicle: saline with Tween-80 106 % of control

C[S+](CCSc1ccccc1)CCSc1ccccc1
inactive: dose: 7.5 mg/kg/injection, schedule: Q01DX009 (ip), vehicle: saline with Tween-80 90 % of control | dose: 15.0 mg/kg/injection, schedule: Q01DX009 (ip), vehicle: saline with Tween-80 101 % of control | dose: 30.0 mg/kg/injection, schedule: Q01DX009 (ip), vehicle: saline with Tween-80 99 % of control

CN1CSC(=S)NCCNC(=S)SC1
inactive: [3] 87 % of control | [4] 94 % of control | [5] 87 % of control

CCCOC(=O)C(F)C(Br)C(=O)OCCC (stereo unspecified)
inactive: dose: 25.0 mg/kg/injection, schedule: Q01DX009 (ip), vehicle: saline with Tween-80 100 % of control and 107 % of control | dose: 50.0 mg/kg/injection, schedule: Q01DX009 (ip), vehicle: saline with Tween-80 105 % of control and 120 % of control | dose: 100.0 mg/kg/injection, schedule: Q01DX009 (ip), vehicle: saline with Tween-80 111 % of control and 118 % of control | dose: 200.0 mg/kg/injection, schedule: Q01DX009 (ip), vehicle: saline with Tween-80 123 % of control

CC(C)(O)c1cc(=O)n(Cc2ccccc2)[nH]1
inactive: [3] 106 % of control | [4] 109 % of control | [5] 108 % of control

CC1(C)C(=O)C(/C=C\c2ccccc2[N+](=O)[O-])Cc2ccccc21 (stereo unspecified)
inactive: dose: 100.0 mg/kg/injection, schedule: Q01DX001 (ip), vehicle: Klucel (hydroxypropylcellulose) (HPC) 100 % of control | dose: 200.0 mg/kg/injection, schedule: Q01DX001 (ip), vehicle: Klucel (hydroxypropylcellulose) (HPC) 99 % of control | dose: 400.0 mg/kg/injection, schedule: Q01DX001 (ip), vehicle: Klucel (hydroxypropylcellulose) (HPC) 100 % of control

O=C1C=C(N(CCCl)CCCl)C(=O)C=C1N(CCCl)CCCl
active: dose: 200.0 mg/kg/injection, schedule: Q04DX003 (ip), vehicle: Klucel (hydroxypropylcellulose) (HPC) 178 % of control
inactive: dose: 50.0 mg/kg/injection, schedule: Q04DX003 (ip), vehicle: Klucel (hydroxypropylcellulose) (HPC) 101 % of control

COC(=O)/C1=C/CCC2=CC(CCC1)OC2=O (stereo unspecified)
inactive: dose: 35.75 mg/kg/injection, schedule: Q01DX005 (ip), vehicle: Klucel (hydroxypropylcellulose) (HPC) 103 % of control | dose: 71.5 mg/kg/injection, schedule: Q01DX005 (ip), vehicle: Klucel (hydroxypropylcellulose) (HPC) 99 % of control | dose: 143.0 mg/kg/injection, schedule: Q01DX005 (ip), vehicle: Klucel (hydroxypropylcellulose) (HPC) 97 % of control

CC(C)=NNC(=O)C1CCN1Cc1ccccc1 (stereo unspecified)
inactive: dose: 50.0 mg/kg/injection, schedule: Q01DX001 (ip), vehicle: saline 106 % of control | dose: 100.0 mg/kg/injection, schedule: Q01DX001 (ip), vehicle: saline 106 % of control | dose: 200.0 mg/kg/injection, schedule: Q01DX001 (ip), vehicle: saline 111 % of control | dose: 400.0 mg/kg/injection, schedule: Q01DX001 (ip), vehicle: saline 106 % of control

CC/C(=C(/CC)c1ccc(O)c(N(CCCl)CCCl)c1)c1ccc(O)c(N(CCCl)CCCl)c1
inactive: dose: 7.5 mg/kg/injection, schedule: Q01DX009 (ip), vehicle: saline 106 % of control | dose: 15.0 mg/kg/injection, schedule: Q01DX009 (ip), vehicle: saline 89 % of control | dose: 30.0 mg/kg/injection, schedule: Q01DX009 (ip), vehicle: saline 105 % of control
